In patent US20130217712A1, “[…] FOR EGFR INHIBITOR TREATMENT” (Hoffmann-La Roche Inc., priority 2007, published 2013):

What was measured:
[1] = tested on: patients with advanced NSCLC following failure of at least one prior chemotherapy regimen; assay: Open-label Phase II predictive marker identification study of Tarceva monotherapy, response by RECIST and survival; type: in vivo, human; settings: all enrolled patients n=264; oral 150 mg/day
Experimental: The selection of this dose was based on pharmacokinetic parameters, as well as the safety and tolerability profile of this dose observed in Phase I, II and III trials in heavily pre-treated patients with advanced cancer. Drug levels seen in the plasma of patients with cancer receiving the 150 mg/day dose were consistently above the average plasma concentration of 500 ng/ml targeted for clinical efficacy.
This was an open-label, predictive marker identification Phase II study. The study was conducted in approximately 26 sites in about 12 countries. 264 patients with advanced NSCLC following failure of at least one prior chemotherapy regimen were enrolled over a 12 month period. […] Dose reductions were permitted based on tolerability to drug therapy. Clinical and laboratory parameters were assessed to evaluate disease control and toxicity. Treatment continued until disease progression, unacceptable toxicity or death. The study design is depicted in FIG. 1.
The RECIST (Uni-dimensional Tumor Measurement) criteria were used to evaluate response. […]
A regular status check every 3 months was performed either by a patient's visit to the clinic or by telephone. All deaths were recorded. […]

[2] = patients with cancer, 150 mg/day dose; 500 ng/ml is the average concentration targeted for clinical efficacy; cited from earlier work

Question: With `C#Cc1cccc(Nc2ncnc3cc(OCCOC)c(OCCOC)cc23)c1` [Erlotinib, erlotinib] as the compound, how does the Median overall survival [1] read?
Answer: 7.6 (CI 7-9) months

Question: What about the median progression-free survival [1] of the same compound?
Answer: 11.3 (CI 8-12) weeks

Question: What about the “drug level in plasma” value [2] of the same compound?
Answer: > 500 ng/mL
